The values that follow come from patent US20250026752A1, “POSITIVE ALLOSTERIC MODULATORS OF THE MUSCARINIC ACETYLCHOLINE RECEPTOR M4” (Vanderbilt University, priority 2021, published 2025).

For data set [1] the following is noted: hepatotoxicity of AChE inhibitors; cited from earlier work.
The conditions of data set [2]: without causing catalepsy; cited from earlier work.
The conditions of data set [3]: Alzheimer's disease patients; cited from earlier work.
A further data set concerns the target T1, human mAChR M4 (Homo sapiens, UniProt P08173).
T1 construct: expressed in transfected cells; host or cells: CHO-K1 (ATCC), stably expressing hM4 and Gqi5
T1 sequence (P08173 1-479): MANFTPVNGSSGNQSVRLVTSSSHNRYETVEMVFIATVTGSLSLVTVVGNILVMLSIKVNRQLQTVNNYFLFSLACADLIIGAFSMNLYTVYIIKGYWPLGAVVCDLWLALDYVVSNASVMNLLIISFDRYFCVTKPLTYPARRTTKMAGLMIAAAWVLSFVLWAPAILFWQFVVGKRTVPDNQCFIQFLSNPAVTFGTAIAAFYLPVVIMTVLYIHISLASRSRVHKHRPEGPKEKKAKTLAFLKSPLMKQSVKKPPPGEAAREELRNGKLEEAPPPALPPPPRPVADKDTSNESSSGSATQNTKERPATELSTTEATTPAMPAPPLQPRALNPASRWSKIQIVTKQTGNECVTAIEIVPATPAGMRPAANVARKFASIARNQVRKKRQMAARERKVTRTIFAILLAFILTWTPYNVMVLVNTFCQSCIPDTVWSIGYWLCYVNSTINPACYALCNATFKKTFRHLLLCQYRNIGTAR
Nature of the data set: mAChR M4 cell-based functional assay: calcium flux (Fluo-4, FDSS), positive allosteric modulator activity on the EC20 acetylcholine response, hM4-Gqi5 CHO-K1 cells. The following applies: for Emax at 30 µM: CHO-K1, human M4, % ACh maximum at 30 μM; for EC50: human M4, PAM activity on EC20 acetylcholine response, calcium flux, read-out: Human M4 EC50. In short, it runs like this:
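Potentiation was taken as the concentration-dependent rise in the EC20 acetylcholine calcium response, fitted by a four-parameter logistic with EC20 as baseline. Fluo-4-loaded hM4-Gqi5 CHO-K1 cells received 11-point, threefold-diluted compound before acetylcholine at 144 s; FDSS read at 1 Hz.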
(In general: Calcium flux is commonly read through the fluorescence of an indicator in the cells.)

With `Nc1c2c(nc3ccccc13)CCCC2` [tacrine], the “elevated liver transaminases observed in patients” value in data set [1] was “about 30 % of patients”.

For the compound `CCCCCCOc1nsnc1C1=CCCN(C)C1` [xanomeline], the “activity in animal models with profiles similar to known antipsychotic drugs” value in data set [2] was “active in animal models”. For the same compound, the “effect on psychotic behavioral symptoms (delusions, suspiciousness, vocal outbursts, hallucinations)” value in data set [3] is recorded as “reduce psychotic behavioral symptoms”. In the case of `Fc1ccc2nc(Oc3ccccc3F)nc(N3CCc4ncc(C(F)(F)F)cc4C3)c2c1` [Compound 199, 6-fluoro-2-(2-fluorophenoxy)-4-[3-(trifluoromethyl)-7,8-dihydro-5H-1,6-naphthyridin-6-yl]quinazoline], on human mAChR M4, the maximal response (Emax) (as a rule, the greatest response seen or fitted, relative to the assay's reference) at 30 µM was 96% and the EC50 (usually the concentration needed to bring the measured effect to its halfway point) is 3370 nM. Consider `Fc1ccc2ncnc(N3CCc4ncc(C(F)(F)F)cc4C3)c2c1` [Compound 122, 6-fluoro-4-[3-(trifluoromethyl)-7,8-dihydro-5H-1,6-naphthyridin-6-yl]quinazoline], for which, on human mAChR M4, the Emax at 30 µM came to 89% and the EC50 amounted to 90 nM. The matching figures for `Cc1nc(N2CCc3ncc(C(F)(F)F)cc3C2)c2cc(Cl)ccc2n1` [Compound 134, 6-chlroo-2-methyl-4-[3-(trifluoromethyl)-7,8-dihydro-5H-1,6-naphthyridin-6-yl]quinazoline]: 75% and 90 nM. On to `Cc1nn(C)cc1-c1cnc2c(c1)CN(c1nc(Cl)nc3ccc(F)cc13)CC2` [Compound 31, 2-chloro-4-[3-(1,3-dimethylpyrazol-4-yl)-7,8-dihydro-5H-1,6-naphthyridin-6-yl]-6-fluoro-quinazoline], for which, on human mAChR M4, the Emax at 30 µM came to 95% and the concentration giving a half-maximal response (EC50) was 230 nM.
